Reference: PubChem BioAssay (NCI)
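Grown in 96-well plates, cells were treated for 48 hours with each compound at five concentrations. Insufficient inhibition: endpoint recorded as highest concentration tested. TGI denotes the concentration required for complete inhibition of growth.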

Tests used:
Test in all cases: growth of human tumour cells (NCI), 48 h
[1] = tested on: COLO 205 colon
[2] = tested on: HCC-2998 colon
[3] = tested on: HL-60(TB) leukemia
[4] = tested on: HOP-62 NSCLC
[5] = tested on: KM12 colon
[6] = tested on: M14 melanoma
[7] = tested on: MALME-3M melanoma
[8] = tested on: MOLT-4 leukemia
[9] = tested on: OVCAR-5 ovarian
[10] = tested on: OVCAR-8 ovarian
[11] = tested on: SK-MEL-5 melanoma
[12] = tested on: SW-620 colon
[13] = tested on: SK-MEL-2 melanoma

SMILES | TGI [1] [µM] | TGI [2] [µM] | TGI [3] [µM] | TGI [4] [µM] | TGI [5] [µM] | TGI [6] [µM] | TGI [7] [µM] | TGI [8] [µM] | TGI [9] [µM] | TGI [10] [µM] | TGI [11] [µM] | TGI [12] [µM] | TGI [13] [µM]
c1ccc2cc3c(cc2c1)nc1ccccn13 | > 100 | > 100 | > 100 | > 100 | > 100 | > 100 | > 100 | > 100 | > 100 | > 100 | > 100 | > 100 | –
CC#CC(O)(C(=O)OC1CC2CCC(C1)N2C)C1CCCC1 (centres undefined) | > 100 | > 100 | > 100 | > 100 | > 100 | > 100 | – | > 100 | > 100 | > 100 | > 100 | > 100 | > 100
CCC(=O)C(C(C)/C=C/CCSc1ccccc1)C(O)CCCCCC(=O)OC (centres undefined) | > 100 | > 100 | – | > 100 | > 100 | > 100 | > 100 | 81 | > 100 | > 100 | > 100 | > 100 | > 100
OC(C/C=N/Nc1ccccc1)(C(F)(F)Cl)C(F)(F)Cl | > 10 | > 10 | > 10 | > 10 | > 10 | > 10 | > 10 | – | – | > 10 | > 10 | > 10 | > 10
O=C1c2ccccc2-c2c1c(-c1cccc(Br)c1)nc1ccc3ccccc3c21 | > 100 | > 100 | – | > 100 | > 100 | > 100 | > 100 | > 100 | > 100 | > 100 | – | > 100 | > 100
CC(=O)NNc1nc(C)c(C(=O)NNC(=O)C(=O)Nc2c(C)cccc2C(C)(C)C)s1 | > 100 | > 100 | > 100 | > 100 | > 100 | > 100 | – | > 100 | > 100 | > 100 | > 100 | > 100 | > 100
CCc1n[nH]c(=O)n1CCO | > 100 | > 100 | > 100 | – | > 100 | > 100 | – | > 100 | > 100 | > 100 | > 100 | > 100 | > 100
COc1cccc(-c2nc(-c3cnccn3)n(COCCO)n2)c1 | > 100 | > 100 | > 100 | > 100 | > 100 | > 100 | – | > 100 | > 100 | > 100 | > 100 | > 100 | –
CC(=O)c1cc(C)n2c1CS[C@@H]2c1ccccc1 | 29 | – | > 100 | > 100 | > 100 | > 100 | > 100 | 96.5 | > 100 | > 100 | > 100 | > 100 | > 100
